The text below walks through data of patent publication US20190134060A1, “25-HYDROXYCHOLESTEROL AND METHODS OF USE THEREOF” (priority 2016, published 2019).

Entries after “also recorded” stand apart in the source; their conditions may differ.

The test system of series [1] is rat hippocampal cultures. The experiment in a line: Oxygen-glucose deprivation (OGD, 2.5 hours)-induced cell death, PI/Hoechst survival. The note with it: for OGD-induced cell death exacerbated by 24S-HC, effect of NMDAR antagonist: co-treatment prior to and during OGD. Format: cell-based. The procedure: (§1) Cell culture. All animal care and experimental procedures were consistent with National Institutes of Health guidelines and were approved by the Washington University Animal Studies Committee. Studies involving animals are reported in accordance with the ARRIVE guidelines for reporting experiments involving animals (12, 13). Rat or mouse hippocampal cultures were prepared from postnatal day 1 to 3, pups of both sexes (85% female) anaesthetized with isoflurane. Hippocampal slices (500 μm thickness) were digested with 1 mg⋅mL^−1 papain in oxygenated LeibovitzL-15 medium (Life Technologies, Gaithersburg, Md., USA). Tissue was mechanically triturated in modified Eagle's medium (Life Technologies) containing 5% horse serum, 5% FCS, 17 mM D glucose, 400 μM glutamine, 50 U⋅mL^−1 penicillin and 50 μg⋅mL^−1 streptomycin. Cells were seeded in modified Eagle's medium at a density of ˜650 cells per mm^2 (onto 25 mm cover glasses coated with 5 mg⋅mL^−1 collagen or 0.1 mg⋅mL^−1 poly-D-lysine with 1 mg⋅mL^−1 laminin). Cultures were incubated at 37° C. in a humidified chamber with 5% CO2/95% air. Cytosine arabinoside (6.7 μM) was added 3-4 days after plating to inhibit glial proliferation. The following day, half of the culture medium was replaced with Neurobasal medium (Life Technologies) plus B27 supplement (Life Technologies).
(§2) Oxygen-glucose deprivation. Mass cultures (13-14 DIV) were exposed to oxygen-glucose deprivation (OGD), in which original medium containing 25 mM glucose was exchanged for fresh MEM medium […] and exposed to a sealed chamber (Billups-Rothenberg, Del Mar, Calif., USA), humidified and saturated with 95% nitrogen and 5% CO2 at 37° C., for 2.5 hours. The gas exchange followed the specifications of the chamber manufacturer (flow of 20 L⋅minute^−1 for 4 minutes to achieve 100% gas exchange). In some experiments, original medium was exchanged for fresh MEM medium containing the specified drugs immediately prior to OGD exposure. Controls were incubated in MEM medium without oxygen deprivation. Following OGD or control treatment, cells were returned to their original medium and incubated under standard culture conditions until the cell death assay (24 hours later). Hoechst 33342 (5 μM) was used to identify all nuclei and propidium iodide (PI, 3 μM) for 30 minutes to stain nuclei of cells with compromised membranes.
(§3) Data analysis. Five 10× microscope fields were quantified per condition per experiment, yielding>100 total neurons for each condition. Ratios of healthy neurons were quantified as the fraction of PI-negative neuronal nuclei to total neuronal nuclei. Automated cell counting algorithms (ImageJ software, National Institutes of Health, Bethesda, Md., USA) were used for cell counts. Toxicity experiments were treated as a dependent sample design (32) in which sibling cultures plated in identical media and exposed to OGD at the same time were compared by repeated measures statistics. Results are shown as means±SEM. Comparative statistics were performed with Student's t-test or one-way repeated measures ANOVA where indicated.

Series [2] deals with hippocampal cultures. The experiment in a line: NMDA-induced cell death (NMDA toxicity) in hippocampal cultures. Format: cell-based. Here is the method: If the neuroprotective effects of 25-HC are entirely through antagonism of NMDAR function and endogenous, local 24S-HC, it would be expected that 25-HC should also reduce direct NMDA-induced cell death. NMDA was exogenously applied at either 8 μM or 20 μM to induce mild or severe toxicity (FIG. 5A).
as §1, §3

In series [3] the test system is NMDARs. Particulars: cited from earlier work.
For series [4], the system named is NMDARs. Nature of the series: Modulation of NMDAR function.
Series [5] has as its system hippocampal cultures. The experiment in a line: More severe OGD (3 hours) with NMDAR blockade by MK-801, cell death. It is filed as cell-based. Particulars: for normalized survival: n=9 cultures. The procedure:
As a final test, a more severe OGD insult was applied by increasing OGD exposure time from 2.5 hours to 3 hours to help emphasize any NMDAR-independent mechanisms of OGD-induced death.
as §2, §3

For series [6], the system named is hippocampal neuron cultures from C571Bl/6 mice. Nature of the series: NMDAR-independent neuroprotection in WT and CYP46A1 knockout mouse hippocampal neuron cultures. It is filed as cell-based. The procedure:
(§4) FIG. 6A, FIG. 6B, FIG. 6C, FIG. 6D, and FIG. 6E depict graphs showing that 25-HC has an NMDAR-independent protecting effect on OGD-induced cell death. (FIG. 6A) Survival rate was compared between control, OGD (3 hour), OGD (3 hour)+MK-801, and OGD (3 hour) +MK-801+25-HC. […] 25-HC protected against the MK-801 insensitive OGD-induced cell death. (n=12 cultures for each group, one-way repeated measures ANOVA with Bonferroni's post hoc test, *p<0.05, ***p<0.001). […] (FIG. 6C) H2O2 (100 μM, 1 hour treatment) toxicity was used to test neuroprotection of 25-HC. 25-HC again yielded mild but reliable protection (N=10 cultures for each group, one-way repeated measures ANOVA with Bonferroni's post hoc test, *P<0.05). (FIG. 6D) and (FIG. 6E) Neither WT nor CYP46A1 knockout hippocampal neuron cultures from C571Bl/6 mice was sensitive to the mild NMDAR independent neuroprotective effect of 25-HC (N=7 cultures for each group; P>0.05).
(§5) To further test the NMDAR-independence neuroprotective effect, a model of oxidative damage: H2O2 induced toxicity was used.
Cell culture. All animal care and experimental procedures were consistent with National Institutes of Health guidelines and were approved by the Washington University Animal Studies Committee. Studies involving animals are reported in accordance with the ARRIVE guidelines for reporting experiments involving animals (12, 13). […]

Series [7] has as its system hippocampal cultures. Nature of the series: H2O2 induced toxicity (model of oxidative damage). It is filed as cell-based. The note with it: H2O2 100 μM, 1 hour treatment; in the presence of MK-801. The procedure:
as §4, §5

In the case of `CC(C)[C@@H](O)CC[C@@H](C)[C@H]1CC[C@H]2[C@@H]3CC=C4C[C@@H](O)CC[C@]4(C)[C@H]3CC[C@]12C` [24S-HC, 24S-hydroxycholesterol], in series [1] (24S-HC 0.5 μM), the “survival compared to OGD alone” value is “significantly poorer survival”. In addition, the “OGD-induced cell death / survival rate” value in series [1] (24S-HC 2 μM, exogenous application, WT rat hippocampal cultures 14 days in vitro) is reported as “significantly poorer survival; also recorded: enhanced OGD-induced cell death; also recorded: significantly lower survival rate”. Further, the “effect on survival when administered alone (no OGD)” value in series [1] (24S-HC alone) is on record as “Consistent effects of 24S-HC were not observed”. Also, in series [1] (24S-HC over a range of 50 nM to 2 μM, rat cultures), the “concentration dependence of OGD-induced cell death” value is listed as “depended on 24S-HC concentration”. Moreover, the “NMDA toxicity with 24S-HC co-treatment” value in series [2] (8 μM NMDA) is “exacerbated NMDA toxicity”. Also, the “concentration at which effects on NMDAR function saturate” value in series [3] was roughly 10 µM. In addition, in series [4], the “exogenous concentration needed to potentiate NMDAR function” value is on record as roughly 50 nM.
`C[C@H](CCCC(C)(C)O)[C@H]1CC[C@H]2[C@@H]3CC=C4C[C@@H](O)CC[C@]4(C)[C@H]3CC[C@]12C` [25-HC, 5-cholestene-3β,25-diol]: the “neuroprotection against MK-801 insensitive OGD-induced cell death” value in series [5] (10 μM 25-HC in the presence of 20 μM MK-801, OGD 3 hours) is recorded as “mild but significant neuroprotection”. Further, in series [1] (10 μM 25-HC incubation during the OGD insult), the “OGD-induced cell death without exogenous 24S-HC” value is on record as “alleviated”. For the same compound, in series [1] (10 μM 25-HC with 1 μM SGE-201), the “SGE-201-exacerbated OGD injury” value is recorded as “alleviated”. The “survival rates, treatment before versus after OGD insult” value in series [1] (25-HC before or after OGD insult) was “comparable survival rates”. Further, the “OGD-induced cell death relative to 24S-HC and OGD alone” value in series [1] (co-treatment 10 μM 25-HC and 2 μM 24S-HC) is “significantly alleviated OGD-induced cell death”. Moreover, in series [2] (10 μM 25-HC, 8 μM NMDA + 24S-HC), the “24S-HC exacerbation of NMDA toxicity” value is listed as “significantly alleviated”. Besides, the “neuroprotection against NMDA-induced cell death” value in series [2] (10 μM 25-HC, NMDA 8 μM or 20 μM) is recorded as “no neuroprotection”. Moreover, the NMDAR-independent neuroprotective effect result in series [6] (CYP46A1 knockout mouse cultures) and in series [6] (WT mouse cultures) was “did not extend” throughout. For the same compound, the “neuroprotection against H2O2 induced toxicity” value in series [7] is given as “mild but consistent neuroprotective effect”. Also, in series [3], the “antagonism of 24S-HC effects on NMDARs” value is “non-competitively antagonizes”.
In the case of `N[C@@H](CCCP(=O)(O)O)C(=O)O` [APV], the “OGD-induced cell death in AAV-CYP-GFP and AAV-GFP-infected neuron cultures” value in series [1] (APV) is reported as “prevented OGD-induced cell death”. The “neuroprotection against OGD” value is “highly neuroprotective” in series [1] (administered before and during OGD); “much less effective” in series [1] (administered during the latent period following OGD insult). Further, the “OGD-induced cell death exacerbated by 24S-HC, effect of NMDAR antagonist” value in series [1] is reported as “rescued”.
With `C[C@]12N[C@H](Cc3ccccc31)c1ccccc12` [MK-801], the “cell death after OGD 3 hours” value in series [5] (20 μM MK-801) is “partially rescued”. Moreover, the normalized survival in series [5] (OGD 3 hours + 20 μM MK-801) is given as 0.66±0.03. Moreover, the “OGD-induced cell death exacerbated by 24S-HC, effect of NMDAR antagonist” value in series [1] is listed as “prevented”.
`CN[C@H](CC(=O)O)C(=O)O` [NMDA]: the cell survival entry in series [2] (NMDA at 8 μM and 20 μM) is recorded as “significantly reduced cell survival”.
For `C[C@H](CCC(C)(C)O)[C@H]1CC[C@H]2[C@@H]3CC=C4C[C@@H](O)CC[C@]4(C)[C@H]3CC[C@]12C` [SGE-201], the “exacerbation of OGD toxicity” value in series [5] (1 μM SGE-201 in the presence of 20 μM MK-801) was “failed to exacerbate OGD toxicity”. Further, the normalized survival in series [5] (OGD 3 hours + 20 μM MK-801 + 1 μM SGE-201) is 0.64±0.04. Besides, the OGD injury result in series [1] (1 μM SGE-201) is recorded as “exacerbated OGD injury”.
